What was measured:
Format in all cases: biochemical, horseradish
[1] = molecular target: T1, HRP (Armoracia rusticana, UniProt P00433); test: Evaluation of substrates: fluorescence spectra of the product formed by reaction with HRP; conditions: 0.05 mM substrate, HRP 13.8 fmol
T1 sequence (P00433 31-338): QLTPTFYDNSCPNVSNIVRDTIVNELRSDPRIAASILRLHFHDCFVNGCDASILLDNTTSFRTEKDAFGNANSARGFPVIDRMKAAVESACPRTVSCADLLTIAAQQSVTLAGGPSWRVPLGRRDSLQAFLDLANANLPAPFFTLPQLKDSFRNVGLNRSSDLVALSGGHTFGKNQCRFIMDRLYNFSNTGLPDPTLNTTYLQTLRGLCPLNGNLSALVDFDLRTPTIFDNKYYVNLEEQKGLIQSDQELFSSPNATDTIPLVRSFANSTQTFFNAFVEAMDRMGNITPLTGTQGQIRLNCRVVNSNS
Method: Enhanced reagent formulations containing each of Compounds 1-13 were prepared in either the Basic Formulation or the Acidic Formulation described below.
Fluorescence spectra were obtained on a Jobin Yvon/SPEX FluoroMax-3 spectrofluorometer with the excitation and emission slits set at 1.0 nm bandpass. UV Fluorimeter cuvettes (3.5 mL capacity, Perfector Scientific) were used.
Each of Compounds 1-13 was tested for production of a fluorescent product by reaction with HRP followed by spectrofluorometric analysis. A representative procedure using Compound 1 is described below. Essentially the same procedure was used for the other compounds.
Three mL of a 0.05 mM solution of ethyl N-methylacridan 9-carboxylate (Compound 1) in the acidic formulation were pipetted into a cuvette. Excitation (λem=524 nm) and emission (λex=[…]) spectra were recorded. HRP (13.8 fmol, 4.6×10^−12M) was added and mixed thoroughly. The increase in fluorescence at 524 nm was recorded over 15 min. Excitation (λem=524 nm) and emission (λex=357 nm) spectra were recorded again.

[2] = molecular target: T1, HRP; test: Fluorescence signal/background measurements in the presence of HRP; conditions: HRP 13.8 fmol, t=15 min vs t=0
Method: Three mL of a solution of each substrate in either the acidic or basic formulation described in Example 12 were pipetted into a cuvette. HRP (13.8 fmol, 4.6×10^−12M) was added and mixed thoroughly. The increase in fluorescence at the maximum was recorded after 15 min for each substrate. Signal-background values were calculated by comparing the fluorescence intensities at t=0 minutes and t=15 minutes.

[3] = molecular target: T1, HRP; test: Sequential fluorescence spectra and kinetics of fluorescent product formation with HRP
Source text: FIG. 1 is a graph showing a series of sequential fluorescence spectra obtained from a reaction solution containing Compound 10 and HRP. The spectra correspond to the fluorescence of the acridinium product. For comparison, the fluorescence spectrum of an independently prepared sample of N-methylacridinium triflate is shown.
FIG. 2 is a graph showing the time course of the generation of fluorescent product from the reaction described in FIG. 1. The product is monitored by excitation at 357 nm and detecting fluorescence emission at 495 nm.
FIG. 4 is a graph showing the a series of sequential fluorescence spectra obtained from a reaction solution containing compound 12 and HRP. The spectra reveal the formation of the acridinium ester intermediate and N-methylacridone product.
Three mL of a 0.05 mM solution of N-methylacridan in the acidic formulation were pipetted into a cuvette. HRP (13.8 fmol, 4.6×10^−12M) was added and mixed thoroughly. Emission spectra (excitation at 357 nm) were obtained at 4.5 minute intervals over 1.8 h. The emission spectrum (excitation at 357 nm) of a 0.05 mM solution of N-methyl acridinium triflate in the acidic formulation is also shown for comparison with the emission spectra from the N-methylacridan/HRP solution.
FIG. 2 depicts the fluorescence intensity at 495 nm (with excitation at 357 nm) from the reaction solution of Example 16 as a function of time. Fluorescence intensity reached a maximum in 2 h and remained constant.
Three mL of a reagent containing 0.3 mM 2′,3′,6′-trifluorophenyl 10-methylacridan-9-carboxylate (compound 12), 0.1 mM 4-phenylphenol, 0.5 mM urea peroxide, 1 mM EDTA, and 0.025% TWEEN 20 in 0.01 M tris buffer, pH 8.0 were pipetted into a cuvette. HRP (13.8 fmol, 4.6×10^−12M) was added and mixed thoroughly. Emission spectra (excitation at 357 nm) were obtained at 4.5 minute intervals over 1.8 h.

[4] = molecular target: T1, HRP; test: Fluorescent detection of HRP by acridinium ester end product formation; conditions: for Fluorescence wavelength of the acridinium end product: reaction with HRP, tris pH 8.0
Method: Forty μL of a detection reagent consisting of 0.05 mM compound 14, 0.6 mM urea peroxide, 0.1 mM p-phenylphenol, 0.025% TWEEN 20, 1 mM EDTA in 0.01 M tris buffer, pH 8.0 was reacted with 1 μL of HRP (1.4×10^−16 mol) at room temperature. Acridinium ester end product formation was detected after 5 min and continued to increase over 1 h as detected by spectrophotometry and fluorescence at 500 nm. [drawing 12]

[5] = molecular target: T1, HRP; test: Fluorescent detection sensitivity of HRP (microtiter plate fluorometer, FIG. 3); conditions: 0.05 mM substrate in acidic formulation
Method: FIG. 3 is a graph showing the linearity of detection of HRP using fluorogenic substrates performed according to the methods of the present invention. Solutions containing 0.05 mM substrate 1 or 4, 0.1 mM 4-phenylphenol, 0.5 mM urea peroxide, 1 mM EDTA, 0.025% TWEEN 20 in 10 mM acetate buffer, pH 5 and a solution of 0.05 mM substrate 2, 0.1 mM 4-phenylphenol, 0.5 mM urea peroxide, 1 mM EDTA, 0.025% TWEEN 20 in 10 mM in 10 mM tris, pH 8 were reacted with the indicated quantities of HRP. After a reaction period of 15-20 min, fluorescence intensity was measured at the maximum. The term Intensity-Background refers to the fluorescence intensity in relative light units in the presence of HRP corrected for background fluorescence (B) in the absence of HRP. […]
Fluorescence detection limits were obtained on a Labsystems Fluoroskan Ascent microtiter plate fluorometer using an excitation bandpass filter (380 nm) and an emission bandpass filter (465 or 530 nm). […] The strips were then read on the Fluoroskan Ascent with the 380 nm-530 nm filter set.
(§1) HRP was serially diluted in type 1 water and 10 μl of diluted HRP was pipetted into each well. […] The strips were then read on the Fluoroskan Ascent with the 380 nm-465 nm filter set.
as §1

[6] = 0.05 mM substrate, tris pH 8.0, HRP 1.4×10^−16 mol, room temperature

Row | SMILES | Fluorescent properties of acridan substrates (fluorescence emission maximum after reaction with HRP) ([1]; pH 5 acidic formulation) [nm] | Fluorescent properties of acridan substrates (fluorescence emission maximum after reaction with HRP) ([1]; pH 8 basic formulation) [nm] | Fluorescent intensity in the presence of HRP (as S/B) ([2]; pH 5 acidic formulation) | also measured
1 | COc1ccc2c(c1)N(c1ccccc1)c1ccccc1C2 [Compound 6] | 512 | 511 | 3.6 | 
2 | CN1c2ccccc2C(C(=O)Oc2c(F)ccc(F)c2F)c2ccccc21 [Compound 12, 2′,3′,6′-trifluorophenyl 10-methylacridan-9-carboxylate, reference compound] |  |  |  | Progression of the HRP reaction from emission spectra (in words) ([3]; 0.3 mM substrate, tris buffer pH 8.0, HRP 13.8 fmol, spectra every 4.5 min over 1.8 h): grow in of acridinium fluorescence and gradual predominance of N-methylacridone fluorescence
3 | COc1ccc2c(c1)N(C)c1c(C)ccc(OC)c1C2C(=O)Oc1c(F)ccc(F)c1F (stereo not shown) [Compound 15, 2,3,6-trifluoro-phenyl 1,6-dimethoxy-4,10-dimethylacridan-9-carboxylate] |  |  |  | Result of the reaction with HRP (in words) ([4]; experiment similar to that with compound 14): fluorescent acridinium end product formation; Fluorescence wavelength of the acridinium end product [4]: 500 nm
4 | COc1ccc2c(c1)N(C)c1cccc(OC)c1C2C(=O)Oc1c(F)ccc(F)c1F (stereo not shown) [Compound 14] |  |  |  | Period over which end product formation continued to increase [4, 6]: 1 h; Time after which acridinium ester end product formation was detected [4, 6]: 5 min; Fluorescence wavelength of the acridinium end product [4]: 500 nm
5 | CN1c2ccccc2C(C(=O)O)c2ccccc21 [Compound 9] |  | 489 |  | Fluorescent intensity in the presence of HRP (as S/B) ([2]; pH 8 basic formulation): 4.3
6 | CCOC(=O)C1c2ccccc2N(C)c2ccccc21 [Compound 1, ethyl N-methylacridan 9-carboxylate] | 524 | 524 | 29.5 | Fluorescent intensity in the presence of HRP (as S/B) ([2]; pH 8 basic formulation): 11.0; Fluorescent detection sensitivity of HRP (in words) [5]: excellent sensitivity
7 | Fc1ccc(N2c3ccccc3Cc3ccccc32)cc1 [Compound 4, N-(4-fluorophenyl)acridan] | 497 | 496 | 3.9 | Fluorescent detection sensitivity of HRP (in words) [5]: excellent sensitivity
8 | CN1c2ccccc2Cc2ccccc21 [Compound 10, N-methylacridan] |  | 490 |  | Time at which fluorescence intensity reached a maximum ([3]; 0.05 mM in acidic formulation, HRP 13.8 fmol, emission 495 nm, excitation 357 nm): 2 h; Product of the HRP reaction identified from emission spectra (in words) ([3]; 0.05 mM in acidic formulation, HRP 13.8 fmol, excitation 357 nm, compared with N-methyl acridinium triflate): enzymatic conversion of Compound 10 to the fluorescent acridinium compound
9 | O=C(O)C1c2ccccc2N(Cc2ccccc2)c2ccccc21 [Compound 8, N-benzyl-acridan-9-carboxylic acid] |  | 493 |  | 
10 | CC1c2ccccc2N(C)c2ccccc21 [Compound 7] | 490 | 488 | 15.8 | 
11 | c1ccc(CN2c3ccccc3Cc3ccccc32)cc1 [Compound 5, N-benzylacridan] | 494 | 494 | 5.6 | 
12 | c1ccc(N2c3ccccc3C(C3c4ccccc4N(c4ccccc4)c4ccccc43)c3ccccc32)cc1 [Compound 11] | 494 | 494 | 84.0 | Fluorescent intensity in the presence of HRP (as S/B) ([2]; pH 8 basic formulation): 6.1
13 | COc1ccc(C2c3ccccc3N(C)c3ccccc32)cc1 [Compound 3] | 484 | 484 | 1.4 | 

From patent US6897036B2, “Fluorescent detection of peroxidase enzymes” (Lumigen, Inc., priority 2002, dated 2005)
